Test results taken from ChEMBL document CHEMBL4138108, “Novel amidino substituted benzimidazole and benzothiazole benzo[b]thieno-2-carboxamides exert strong antiproliferative and DNA binding properties” (Eur J Med Chem, 2017).
Calls of active or inactive are those of the source. The rule behind the calls is not given here.

What was measured:
[1] = target: T1, DNA topoisomerase 1 (Homo sapiens) (UniProt P11387); experiment: Poison activity at human topoisomerase-1 assessed as increase in relaxation of supercoiled pUC19 DNA at 1 to 50 uM by ethidium bromide staining based agarose gel electrophoresis
T1 sequence (whole entry): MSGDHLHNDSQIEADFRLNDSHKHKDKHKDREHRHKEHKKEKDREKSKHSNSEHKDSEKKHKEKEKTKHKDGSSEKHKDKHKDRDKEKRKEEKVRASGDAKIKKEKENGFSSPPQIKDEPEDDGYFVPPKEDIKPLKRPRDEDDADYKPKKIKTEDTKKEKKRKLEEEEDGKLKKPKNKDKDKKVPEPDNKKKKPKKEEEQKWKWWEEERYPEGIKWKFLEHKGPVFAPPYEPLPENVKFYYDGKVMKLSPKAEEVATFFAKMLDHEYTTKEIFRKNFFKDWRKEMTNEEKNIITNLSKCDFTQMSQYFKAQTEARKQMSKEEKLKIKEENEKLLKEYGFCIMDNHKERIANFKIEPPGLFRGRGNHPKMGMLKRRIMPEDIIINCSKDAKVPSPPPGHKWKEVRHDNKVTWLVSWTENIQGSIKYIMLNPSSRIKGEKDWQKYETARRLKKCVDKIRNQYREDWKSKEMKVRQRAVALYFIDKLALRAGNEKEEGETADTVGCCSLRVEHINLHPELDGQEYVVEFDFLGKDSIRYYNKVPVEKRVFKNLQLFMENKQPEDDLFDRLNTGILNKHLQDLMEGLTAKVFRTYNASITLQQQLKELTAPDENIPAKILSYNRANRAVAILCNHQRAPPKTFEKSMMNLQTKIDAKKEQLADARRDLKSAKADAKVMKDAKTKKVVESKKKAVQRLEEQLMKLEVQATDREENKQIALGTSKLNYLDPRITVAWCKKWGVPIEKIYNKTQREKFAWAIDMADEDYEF

Calf thymus DNA [2] = experiment: Binding affinity to calf thymus duplex DNA assessed as change in melting temperature at drug to DNA ratio of 0.5 measured for every mins by spectrophotometric analysis; assay type: nucleic-acid assay; settings: Bos taurus
WI-38 = experiment: Cytotoxicity against human WI38 cells after 72 hrs by MTT assay; assay type: cell-based; settings: WI-38, 72 h
Calf thymus DNA [3] = experiment: Binding affinity to calf thymus duplex DNA assessed as hyperchromic effect at drug to DNA ratio of 1 to 8 by UV-visible spectroscopic method; assay type: nucleic-acid assay; settings: Bos taurus
Calf thymus DNA [4] = experiment: Binding affinity to calf thymus duplex DNA assessed as bathochromic shift at drug to DNA ratio of 1 to 8 by UV-visible spectroscopic method; assay type: nucleic-acid assay; settings: Bos taurus
SW-620 = experiment: Antiproliferative activity against human SW620 cells after 72 hrs by MTT assay; assay type: functional, cell-based; settings: SW-620, 72 h
[5] = Drug uptake in nucleus of human 786-O cells at 10 uM after 4 hrs by propidium iodide staining-based fluorescence microscopic analysis; assay type: ADME, subcellular; settings: 786-0, 4 h
Calf thymus DNA [6] = experiment: Binding affinity to calf thymus duplex DNA assessed as change in melting temperature at drug to DNA ratio of 0.25 measured for every mins by spectrophotometric analysis; assay type: nucleic-acid assay; settings: Bos taurus
[7] = target: T1, DNA topoisomerase 1 (Homo sapiens); experiment: Inhibition of human topoisomerase-1 assessed as increase in accumulation of supercoiled pUC19 DNA at 1 to 50 uM by ethidium bromide staining based agarose gel electrophoresis
Calf thymus DNA [8] = experiment: Binding affinity to calf thymus duplex DNA assessed as hypochromic effect up to drug to DNA ratio of 1 by UV-visible spectroscopic method; assay type: nucleic-acid assay; settings: Bos taurus
[9] = target: T1, DNA topoisomerase 1 (Homo sapiens); experiment: Inhibition of human topoisomerase-1 assessed as increase in accumulation of supercoiled pUC19 DNA at 1 to 50 uM in absence of ethidium bromide staining by agarose gel electrophoresis
HepG2 = experiment: Antiproliferative activity against human HepG2 cells after 72 hrs by MTT assay; assay type: functional, cell-based; settings: HepG2, 72 h
HeLa = experiment: Antiproliferative activity against human HeLa cells after 72 hrs by MTT assay; assay type: functional, cell-based
[10] = Binding affinity to AT-rich site of 3'-end radiolabelled 265 bp pBS DNA at 0.01 to 10 uM after 15 mins by DNase I footprinting assay
CFPAC-1 = experiment: Antiproliferative activity against human CFPAC-1 cells after 72 hrs by MTT assay; assay type: functional, cell-based; settings: CFPAC-1, 72 h
Calf thymus DNA [11] = experiment: Binding affinity to calf thymus duplex DNA assessed as bathochromic shift up to drug to DNA ratio of 8 by UV-visible spectroscopic method; assay type: nucleic-acid assay; settings: Bos taurus
Calf thymus DNA [12] = experiment: Binding affinity to calf thymus duplex DNA assessed as hyperchromic effect up to drug to DNA ratio of 8 by UV-visible spectroscopic method; assay type: nucleic-acid assay; settings: Bos taurus
Calf thymus DNA [13] = experiment: Binding affinity to calf thymus duplex DNA by CD spectrum analysis; assay type: nucleic-acid assay; settings: Bos taurus
Calf thymus DNA [14] = experiment: Binding affinity to calf thymus duplex DNA assessed as hypochromic effect up to drug to DNA ratio of 8 by UV-visible spectroscopic method; assay type: nucleic-acid assay; settings: Bos taurus
Calf thymus DNA [15] = experiment: Binding affinity to calf thymus duplex DNA assessed as change in melting temperature at drug to DNA ratio of 1 measured for every mins by spectrophotometric analysis; assay type: nucleic-acid assay; settings: Bos taurus
[16] = target: T1, DNA topoisomerase 1 (Homo sapiens); experiment: Poison activity at human topoisomerase-1 assessed as increase in relaxation of supercoiled pUC19 DNA at 50 uM by ethidium bromide staining based agarose gel electrophoresis

Compound | Activity [1] | ΔTm (Calf thymus DNA [2]) [°C] | IC50 (WI-38) [µM] | Activity (Calf thymus DNA [3]) | Activity (Calf thymus DNA [4]) | IC50 (SW-620) [µM] | Drug uptake [5] | inhibition [7] | Activity (Calf thymus DNA [8]) | inhibition [9] | IC50 (HepG2) [µM] | IC50 (HeLa) [µM] | IC50 (CFPAC-1) [µM] | ΔTm (Calf thymus DNA [15]) [°C] | further results
Cl.Cl.O=C(Nc1nc2ccc(C3=NCCN3)cc2[nH]1)c1sc2cc(C3=NCCN3)ccc2c1Cl | inactive | 16.6 | 56.3 | Active | Active | > 100 | Active | Active | Active | Active | > 100 | > 100 | > 100 | – | ΔTm (Calf thymus DNA [6]): 14.6 °C; Activity [10]: Active
O=C(Nc1nc2ccccc2s1)c1sc2cc(C3=NCCN3)ccc2c1Cl | inactive | – | 4.24 | – | – | 7.05 | – | inactive | – | – | 14.2 | 1.16 | 5.04 | – | Activity (Calf thymus DNA [11]): inactive; Activity (Calf thymus DNA [12]): inactive; Activity (Calf thymus DNA [13]): Dose-dependent effect; Activity (Calf thymus DNA [14]): Active
O=C(Nc1nc2ccc(C3=NCCN3)cc2s1)c1sc2ccccc2c1Cl | – | -0.2 | 5.06 | – | – | 4.44 | – | – | – | – | 4.51 | 4.09 | 4.18 | -1.7 | –
O=C(Nc1nc2ccc(C3=NCCN3)cc2s1)c1sc2cc(C3=NCCN3)ccc2c1Cl | – | 1 | 86.5 | – | – | 82 | – | – | – | – | 95.2 | 49.1 | 61.3 | 1.5 | –
O=C(Nc1nc2ccc([N+](=O)[O-])cc2[nH]1)c1sc2cc(C3=NCCN3)ccc2c1Cl | inactive | 2.4 | 4.06 | – | – | 6.18 | – | Active | Active | Active | 2.23 | 2.61 | 6.93 | 2.4 | –
O=C(Nc1nc2ccc(C3=NCCN3)cc2s1)c1sc2cc([N+](=O)[O-])ccc2c1Cl | – | -0.8 | > 100 | – | – | 69.1 | – | – | – | – | 6.43 | 5.58 | 6.81 | 0.8 | –
Cl.O=C(Nc1nc2ccccc2[nH]1)c1sc2cc(C3=NCCN3)ccc2c1Cl | inactive | 3.7 | 2.97 | Active | Active | 5.49 | Active | Active | Active | Active | 2.47 | 2.31 | 4.84 | 6.3 | –
Cl.O=C(Nc1nc2ccc(C3=NCCN3)cc2[nH]1)c1sc2ccccc2c1Cl | – | 1.9 | 9.94 | Active | Active | 10.3 | Active | – | Active | – | 5.41 | 3.89 | 20.7 | 3.9 | Activity (Calf thymus DNA [13]): Dose-dependent effect; Activity [16]: inactive
